The values that follow come from ChEMBL document CHEMBL5729129, “Apoptosis signal-regulating kinase 1 (ASK 1) inhibitor compounds” (2022).

pIC50: −log10 of the molar value.

As usually defined, the pIC50 is −log10 of the IC50, conventionally taken in molar units.

Experiment [1] has as its target T1, Mitogen-activated protein kinase kinase kinase 5 (Homo sapiens, UniProt Q99683).
T1 sequence (Q99683 whole entry): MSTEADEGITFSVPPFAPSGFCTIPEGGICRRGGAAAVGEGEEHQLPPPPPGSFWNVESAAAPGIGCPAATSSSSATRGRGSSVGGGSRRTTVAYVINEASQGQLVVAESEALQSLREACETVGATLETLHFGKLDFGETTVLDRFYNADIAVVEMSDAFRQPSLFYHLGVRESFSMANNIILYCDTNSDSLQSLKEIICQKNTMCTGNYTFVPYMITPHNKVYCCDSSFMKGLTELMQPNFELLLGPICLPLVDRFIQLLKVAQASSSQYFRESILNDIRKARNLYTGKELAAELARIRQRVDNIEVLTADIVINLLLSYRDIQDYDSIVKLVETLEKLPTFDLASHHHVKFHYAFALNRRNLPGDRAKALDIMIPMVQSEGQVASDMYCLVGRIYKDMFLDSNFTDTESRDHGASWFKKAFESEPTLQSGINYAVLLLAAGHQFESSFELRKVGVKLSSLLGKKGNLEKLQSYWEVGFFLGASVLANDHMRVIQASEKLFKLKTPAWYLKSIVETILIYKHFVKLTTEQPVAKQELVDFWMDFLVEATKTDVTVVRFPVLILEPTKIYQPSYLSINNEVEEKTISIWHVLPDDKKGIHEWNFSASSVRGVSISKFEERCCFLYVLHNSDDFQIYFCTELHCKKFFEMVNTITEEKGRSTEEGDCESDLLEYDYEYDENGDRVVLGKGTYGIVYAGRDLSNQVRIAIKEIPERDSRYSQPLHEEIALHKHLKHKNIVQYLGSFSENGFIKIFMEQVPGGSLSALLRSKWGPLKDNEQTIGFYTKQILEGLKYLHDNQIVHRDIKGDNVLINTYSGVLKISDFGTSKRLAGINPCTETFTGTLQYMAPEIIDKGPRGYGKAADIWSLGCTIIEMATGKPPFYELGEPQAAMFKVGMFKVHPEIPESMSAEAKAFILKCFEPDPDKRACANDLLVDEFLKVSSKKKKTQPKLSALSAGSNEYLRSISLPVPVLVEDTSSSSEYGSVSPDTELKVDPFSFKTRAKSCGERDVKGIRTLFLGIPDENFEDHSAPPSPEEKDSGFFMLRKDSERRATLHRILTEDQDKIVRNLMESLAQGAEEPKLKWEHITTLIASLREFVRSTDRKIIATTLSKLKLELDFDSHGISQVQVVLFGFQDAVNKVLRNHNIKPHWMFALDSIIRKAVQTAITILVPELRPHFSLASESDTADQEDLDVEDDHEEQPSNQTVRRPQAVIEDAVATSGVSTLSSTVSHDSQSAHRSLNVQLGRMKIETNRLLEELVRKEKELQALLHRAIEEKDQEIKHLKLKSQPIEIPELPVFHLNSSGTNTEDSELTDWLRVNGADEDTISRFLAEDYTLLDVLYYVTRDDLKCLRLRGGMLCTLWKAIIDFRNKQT
In words: ADP-Glo Assay: Table 3: The ability of test compounds to inhibit ASK1 kinase activity was determined using the luminescent ADP-Glo™ Kinase Assay and Myelin Basic Protein (MBP) as a substrate (Promega Corporation, Madison, Wis.). During the kinase reaction, ASK1 utilizes ATP and generates ADP. The remaining ATP is then depleted by addition of the ADP-Glo™ reagent which also terminates the reaction. Subsequent addition of the Kinase Detection Reagent converts the ADP that was produced during the kinase reaction to ATP, and this newly synthesized ATP is converted to light using the luciferase/luciferin reactions. The assay was performed according to the manufacturer's instructions. Briefly, purified, recombinant ASK1 (amino acids 649-946) (10-20 ng/well) was added to a 384-well, F bottom, small volume, HIbase, white plate (Greiner Bio-One, Monroe, N.C. #784075) containing 1-2 μL 5× test compound or vehicle control (diluted 1:20 from a 100% DMSO stock solution into 1× Reaction Buffer A). The enzyme was allowed to pre-incubate with test compound from 15-120 min at 30° C. before the addition of the ATP/substrate mix (final concentrations of 50 μM ATP+250 ng MBP in 1× Reaction Buffer A). The mixture was then incubated at room temperature for 40 min before the addition of ADP-Glo™ reagent and a second 40 minute room temperature incubation. […]. (In general: ADP-Glo first removes unused ATP, then detects ADP through luciferase.)

Experiment [2] concerns the target T2, Lysyl oxidase homolog 2 (Homo sapiens, UniProt Q9Y4K0).
T2 sequence (Q9Y4K0 whole entry): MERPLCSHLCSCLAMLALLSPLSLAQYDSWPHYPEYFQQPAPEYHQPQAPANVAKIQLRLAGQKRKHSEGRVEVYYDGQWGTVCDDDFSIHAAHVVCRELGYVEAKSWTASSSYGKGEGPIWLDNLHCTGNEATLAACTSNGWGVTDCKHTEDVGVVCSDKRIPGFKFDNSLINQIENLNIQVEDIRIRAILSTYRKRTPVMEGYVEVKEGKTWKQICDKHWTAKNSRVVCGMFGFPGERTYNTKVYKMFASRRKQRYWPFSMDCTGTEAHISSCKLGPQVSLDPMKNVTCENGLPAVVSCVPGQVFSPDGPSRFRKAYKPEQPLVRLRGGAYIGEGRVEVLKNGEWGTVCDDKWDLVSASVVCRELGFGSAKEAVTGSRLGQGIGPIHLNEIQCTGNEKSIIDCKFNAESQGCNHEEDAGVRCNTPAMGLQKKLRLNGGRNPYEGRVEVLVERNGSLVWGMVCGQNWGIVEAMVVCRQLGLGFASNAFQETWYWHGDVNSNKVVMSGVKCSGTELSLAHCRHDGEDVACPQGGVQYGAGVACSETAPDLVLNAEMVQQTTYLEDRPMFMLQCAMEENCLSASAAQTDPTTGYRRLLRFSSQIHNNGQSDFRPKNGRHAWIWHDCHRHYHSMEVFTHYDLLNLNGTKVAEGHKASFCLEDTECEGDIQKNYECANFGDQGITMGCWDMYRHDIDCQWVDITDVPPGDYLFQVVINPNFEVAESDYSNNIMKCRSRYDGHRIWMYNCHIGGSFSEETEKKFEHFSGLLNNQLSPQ
Kind of experiment: Amine Oxidase Activity Assay: Table 4: LOXL2 amine oxidase activity was evaluated by measuring Amplex Red fluorescence using 10-20× concentrated conditioned media from CHO cells stably expressing human LOXL2. To assay for amine oxidase activity, 10 μL of the concentrated conditioned media was incubated with 2 μL of test compound in DMSO and 73 μL Assay Buffer (50 mM Borate Buffer, pH8) for 2 h at 37° C. After the 2 h incubation, 5 μL of 10 mM 1,5-Diaminopentane (DAP) diluted in Assay Buffer and 10 μL of Amplex Red Mix (8.5 μL Assay Buffer+0.5 μL of 10 mM Amplex Red+1 μL of 500 U/ml Horseradish Peroxidase) were added and the plate mixed and immediately placed on the FlexStation for fluorescence measurements. Fluorescence was read in kinetic mode every 2 min for 0.5-1 hour at excitation=544 and emission=590. The amine oxidase activity was calculated from the slope of the linear portion of the curve. Wells containing vehicle (DMSO) represented maximum activity and were set to 0% inhibition and wells containing 100 μM βAPN (3-aminopropionitrile) represented no activity and were set to 100% inhibition.

Take `NCc1cc(Oc2ccnc(C(=O)Nc3cccc(-c4nncn4C4CC4)c3)c2)nc(C(F)(F)F)c1`: the negative-log IC50 (pIC50) in experiment [1] was below 6.00; in experiment [2], above 6.52.
